Columns and labels:
Assay in all cases: kinome screen (33PanQinase)
Assay type in all cases: biochemical
SNK = biological target: T1, SNK (Homo sapiens, UniProt Q9NYY3)
T1 construct: purchased Reaction Biology Europe GmbH (formerly ProQinase)
Protocol: (§1) The Kinome Screening was performed by Reaction Biology Europe GmbH (http://reactionbiology.com; Freiburg i. Br., Germany).

PIM1 = biological target: T2, PIM1 (Homo sapiens, UniProt P11309)
T2 construct: purchased Reaction Biology Europe GmbH (formerly ProQinase)
Protocol: as §1

LYN = biological target: T3, LYN (Homo sapiens, UniProt P07948)
T3 construct: purchased Reaction Biology Europe GmbH (formerly ProQinase)
Protocol: as §1

IRAK4 = biological target: T4, IRAK4 (Homo sapiens, UniProt Q9NWZ3)
T4 construct: purchased Reaction Biology Europe GmbH (formerly ProQinase)
T4 sequence (Q9NWZ3 1-460): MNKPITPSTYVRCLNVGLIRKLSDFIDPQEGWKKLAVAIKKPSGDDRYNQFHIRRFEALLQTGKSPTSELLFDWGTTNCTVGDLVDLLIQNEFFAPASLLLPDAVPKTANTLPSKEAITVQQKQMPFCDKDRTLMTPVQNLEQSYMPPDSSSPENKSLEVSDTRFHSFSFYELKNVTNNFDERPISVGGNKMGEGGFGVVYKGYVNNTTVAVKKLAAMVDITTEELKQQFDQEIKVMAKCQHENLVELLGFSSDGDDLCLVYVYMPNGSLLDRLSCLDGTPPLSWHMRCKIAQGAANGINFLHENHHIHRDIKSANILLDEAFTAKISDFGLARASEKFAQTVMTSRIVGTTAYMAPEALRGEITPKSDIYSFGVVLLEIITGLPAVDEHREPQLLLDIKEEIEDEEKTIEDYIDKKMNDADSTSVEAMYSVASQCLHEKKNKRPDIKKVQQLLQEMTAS
Protocol: as §1

NEK11 = biological target: T5, NEK11 (Homo sapiens, UniProt Q8NG66)
T5 construct: purchased Reaction Biology Europe GmbH (formerly ProQinase)
T5 sequence (Q8NG66 1-645): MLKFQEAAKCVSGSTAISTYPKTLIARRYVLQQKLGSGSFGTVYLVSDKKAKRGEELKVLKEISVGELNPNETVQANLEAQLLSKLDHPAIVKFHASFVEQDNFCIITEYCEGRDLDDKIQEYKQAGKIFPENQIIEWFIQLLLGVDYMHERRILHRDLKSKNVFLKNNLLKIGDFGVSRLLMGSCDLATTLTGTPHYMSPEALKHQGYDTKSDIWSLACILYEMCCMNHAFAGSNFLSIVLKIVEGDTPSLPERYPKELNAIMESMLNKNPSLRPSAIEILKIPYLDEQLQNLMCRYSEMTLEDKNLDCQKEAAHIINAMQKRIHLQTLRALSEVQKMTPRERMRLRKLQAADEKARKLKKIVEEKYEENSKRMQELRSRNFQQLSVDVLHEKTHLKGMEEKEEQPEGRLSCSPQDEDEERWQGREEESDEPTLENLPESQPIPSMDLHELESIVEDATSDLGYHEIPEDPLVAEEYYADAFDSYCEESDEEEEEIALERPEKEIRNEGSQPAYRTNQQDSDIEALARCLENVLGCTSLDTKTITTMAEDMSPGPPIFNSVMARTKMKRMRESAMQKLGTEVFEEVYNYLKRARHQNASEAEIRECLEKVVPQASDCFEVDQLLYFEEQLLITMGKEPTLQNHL
Protocol: as §1

TAOK3 = biological target: T6, TAOK3 (Homo sapiens, UniProt Q9H2K8)
T6 construct: purchased Reaction Biology Europe GmbH (formerly ProQinase)
T6 sequence (Q9H2K8 1-898): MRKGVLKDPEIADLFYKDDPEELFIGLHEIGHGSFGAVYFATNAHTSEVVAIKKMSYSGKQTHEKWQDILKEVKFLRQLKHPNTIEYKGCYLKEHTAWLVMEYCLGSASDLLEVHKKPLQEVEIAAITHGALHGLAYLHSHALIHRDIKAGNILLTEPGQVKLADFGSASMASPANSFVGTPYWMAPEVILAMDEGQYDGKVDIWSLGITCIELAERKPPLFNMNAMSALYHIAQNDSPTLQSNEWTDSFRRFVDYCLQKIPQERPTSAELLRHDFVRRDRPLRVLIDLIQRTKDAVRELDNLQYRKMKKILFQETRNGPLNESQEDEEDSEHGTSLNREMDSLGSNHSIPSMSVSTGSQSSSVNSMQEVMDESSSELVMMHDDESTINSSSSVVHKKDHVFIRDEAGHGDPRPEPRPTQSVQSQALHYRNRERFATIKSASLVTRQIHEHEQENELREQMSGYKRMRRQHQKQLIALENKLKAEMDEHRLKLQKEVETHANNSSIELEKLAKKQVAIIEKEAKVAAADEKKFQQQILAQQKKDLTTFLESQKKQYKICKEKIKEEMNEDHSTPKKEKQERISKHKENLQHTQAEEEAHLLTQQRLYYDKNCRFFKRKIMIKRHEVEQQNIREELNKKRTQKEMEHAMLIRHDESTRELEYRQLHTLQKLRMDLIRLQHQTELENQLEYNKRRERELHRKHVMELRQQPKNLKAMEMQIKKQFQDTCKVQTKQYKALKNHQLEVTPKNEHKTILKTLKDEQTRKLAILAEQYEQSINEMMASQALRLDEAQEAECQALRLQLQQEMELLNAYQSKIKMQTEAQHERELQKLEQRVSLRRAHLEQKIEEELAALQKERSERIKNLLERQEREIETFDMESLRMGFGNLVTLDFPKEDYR
Protocol: as §1

T2 sequence (P11309 whole entry): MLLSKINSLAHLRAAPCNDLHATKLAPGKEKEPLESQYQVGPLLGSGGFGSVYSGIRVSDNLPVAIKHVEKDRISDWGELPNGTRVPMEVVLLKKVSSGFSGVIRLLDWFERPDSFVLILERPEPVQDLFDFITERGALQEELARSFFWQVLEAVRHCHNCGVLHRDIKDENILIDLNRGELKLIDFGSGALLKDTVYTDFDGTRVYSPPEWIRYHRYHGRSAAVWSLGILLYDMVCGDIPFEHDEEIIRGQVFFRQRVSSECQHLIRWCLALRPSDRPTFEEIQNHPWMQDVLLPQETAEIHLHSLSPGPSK
T3 sequence (P07948 whole entry): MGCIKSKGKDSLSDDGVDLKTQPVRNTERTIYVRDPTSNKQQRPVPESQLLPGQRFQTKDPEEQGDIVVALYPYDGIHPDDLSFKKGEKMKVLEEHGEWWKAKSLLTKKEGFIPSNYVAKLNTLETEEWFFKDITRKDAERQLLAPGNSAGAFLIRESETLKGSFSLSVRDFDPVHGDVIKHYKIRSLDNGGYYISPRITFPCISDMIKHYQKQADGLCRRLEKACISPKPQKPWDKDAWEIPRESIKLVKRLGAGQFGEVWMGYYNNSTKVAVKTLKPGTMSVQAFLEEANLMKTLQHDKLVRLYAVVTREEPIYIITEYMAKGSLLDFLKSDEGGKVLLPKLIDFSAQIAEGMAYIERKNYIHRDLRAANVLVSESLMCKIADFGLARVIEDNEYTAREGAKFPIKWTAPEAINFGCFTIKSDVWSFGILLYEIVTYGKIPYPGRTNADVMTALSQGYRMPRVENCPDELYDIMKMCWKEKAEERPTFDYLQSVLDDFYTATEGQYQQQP
T1 sequence (Q9NYY3 whole entry): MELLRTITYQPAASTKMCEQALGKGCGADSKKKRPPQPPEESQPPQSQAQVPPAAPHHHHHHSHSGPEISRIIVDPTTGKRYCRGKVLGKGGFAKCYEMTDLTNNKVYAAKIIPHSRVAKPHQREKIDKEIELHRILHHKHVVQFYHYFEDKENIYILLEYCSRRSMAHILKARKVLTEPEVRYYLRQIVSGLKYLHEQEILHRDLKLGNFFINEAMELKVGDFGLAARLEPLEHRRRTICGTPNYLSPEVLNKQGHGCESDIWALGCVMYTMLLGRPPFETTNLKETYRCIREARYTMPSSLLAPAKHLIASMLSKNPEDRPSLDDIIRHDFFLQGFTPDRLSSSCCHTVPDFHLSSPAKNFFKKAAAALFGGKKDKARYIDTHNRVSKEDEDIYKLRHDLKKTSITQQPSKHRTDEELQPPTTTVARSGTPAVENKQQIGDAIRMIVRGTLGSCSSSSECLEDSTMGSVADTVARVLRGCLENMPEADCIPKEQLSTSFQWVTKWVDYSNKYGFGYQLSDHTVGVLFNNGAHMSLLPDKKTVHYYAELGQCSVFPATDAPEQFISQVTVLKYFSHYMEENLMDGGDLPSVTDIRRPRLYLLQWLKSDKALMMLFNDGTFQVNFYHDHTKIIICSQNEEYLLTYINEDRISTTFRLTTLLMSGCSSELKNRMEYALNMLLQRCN

c1ccc(CNc2cc(-c3c[nH]c4ncccc34)ccn2)cc1 [meriolin 36]
residual kinase activity (SNK; 0.3 µM): 94 % of control | residual kinase activity (SNK; 3 µM): 43 % of control | residual kinase activity (PIM1; 0.3 µM): 55 % of control | residual kinase activity (PIM1; 3 µM): 14 % of control | residual kinase activity (LYN; 0.3 µM): 73 % of control | residual kinase activity (LYN; 3 µM): 25 % of control | residual kinase activity (IRAK4; 0.3 µM): 14 % of control | residual kinase activity (IRAK4; 3 µM): 2 % of control | residual kinase activity (NEK11; 0.3 µM): 105 % of control | residual kinase activity (NEK11; 3 µM): 85 % of control | residual kinase activity (TAOK3; 0.3 µM): 44 % of control | residual kinase activity (TAOK3; 3 µM): 6 % of control

COc1ccnc2[nH]cc(-c3cc(N)nc(N)c3)c12 [meriolin 16]
residual kinase activity (SNK; 0.03 µM): 96 % of control | residual kinase activity (SNK; 0.3 µM): 98 % of control | residual kinase activity (PIM1; 0.03 µM): 77 % of control | residual kinase activity (PIM1; 0.3 µM): 40 % of control | residual kinase activity (LYN; 0.03 µM): 105 % of control | residual kinase activity (LYN; 0.3 µM): 81 % of control | residual kinase activity (IRAK4; 0.03 µM): 83 % of control | residual kinase activity (IRAK4; 0.3 µM): 50 % of control | residual kinase activity (NEK11; 0.03 µM): 97 % of control | residual kinase activity (NEK11; 0.3 µM): 87 % of control | residual kinase activity (TAOK3; 0.03 µM): 111 % of control | residual kinase activity (TAOK3; 0.3 µM): 91 % of control
